Data from patent US20090197910A1, “NOVEL VIRAL REPLICATION INHIBITORS” (KATHOLIEKE UNIVERSITEIT LEUVEN, priority 2006, published 2009).

Experiments:
[1] = Cytostatic effect on Huh-5-2 cells (MTS method, parallel cultures); format: cell-based; conditions: human, read-out: CC50 (concentration required to inhibit the proliferation of exponentially growing Huh-5-2 cells by 50%)
Protocol: (§1) Huh-5-2 cells [a cell line with a persistent HCV replicon I3891uc-ubi-neo/NS3-3′/5.1; replicon with firefly luciferase-ubiquitin-neomycin phosphotransferase fusion protein and EMCV-IRES driven NS3-5B HCV polyprotein] was cultured in RPMI medium (Gibco) supplemented with 10% fetal calf serum, 2 mM L-glutamine (Life Technologies), 1× non-essential amino acids (Life Technologies); 100 IU/ml penicillin and 100 ug/ml streptomycin and 250 ug/ml G418 (Geneticin, Life Technologies). Cells were seeded at a densitiy of 7000 cells per well in 96 well View Plate™ (Packard) in medium containing the same components as described above, except for G418. Cells were allowed to adhere and proliferate for 24 hr. At that time, culture medium was removed and serial dilutions of the test compounds were added in culture medium lacking G418. Interferon alfa 2a (500 IU) was included as a positive control. Plates were further incubated at 37° C. and 5% CO2 for 72 hours. Replication of the HCV replicon in Huh-5 cells results in luciferase activity in the cells. Luciferase activity is measured by adding 50 μl of 1× Glo-lysis buffer (Promega) for 15 minutes followed by 50 ul of the Steady-Glo Luciferase assay reagent (Promega). Luciferase activity is measured with a luminometer and the signal in each individual well is expressed as a percentage of the untreated cultures. Parallel cultures of Huh-5-2 cells, seeded at a density of 7000 cells/well of classical 96-well cell culture plates (Becton-Dickinson) are treated in a similar fashion except that no Glo-lysis buffer or Steady-Glo Luciferase reagent is added. Instead the density of the culture is measured by means of the MTS method (Promega).

[2] = tested on: HCV Subgenomic Replicon; assay: HCV-Huh-5-2 replicon cell assay (luciferase); format: cell-based, Hepatitis C virus; conditions: for EC50: Hepatitis C virus, HCV subgenomic replicon in Huh-5-2 cells, 72 hours, luciferase, read-out: EC50 (concentration required to inhibit luciferase activity in the replicon system by 50%); for SI (selectivity index, ratio of CC50 to EC50): Huh-5-2 cells
Protocol: as §1

| SMILES | CC50 at 72 h [1] | EC50 [2] | SI (selectivity index, ratio of CC50 to EC50) [2] |
| --- | --- | --- | --- |
| O=c1oc2ccccc2cc1CSc1nc2cc(Cl)c(Cl)cc2[nH]1 [Compound 4e, 3-(5,6-Dichloro-1H-benzoimidazol-2-ylsulfanylmethyl)-chromen-2-one] | 74.4 µM | 15.5 µM | 4.80 |
| O=C(c1ccccc1)c1ccc2[nH]c(SCc3cc4ccccc4oc3=O)nc2c1 [Compound 4c, 3-(5-Benzoyl-1H-benzoimidazol-2-ylsulfanylmethyl)-chromen-2-one] | 36.8 µM | 6.61 µM | 5.58 |
| O=c1oc2ccc(Br)cc2cc1CSc1nc2ccccc2o1 [Compound 19c, 3-(Benzooxazol-2-ylsulfanylmethyl)-6-bromo-chromen-2-one] | 131 µM | 11.8 µM | 11.10 |
| COc1cccc2cc(CSc3nc4cc(F)ccc4[nH]3)c(=O)oc12 [Compound 4h, 3-(5-Fluoro-1H-benzoimidazol-2-ylsulfanylmethyl)-8-methoxy-chromen-2-one] | 41.9 µM | 15.9 µM | 2.63 |
| O=c1oc2ccccc2cc1CSc1nc2cc(F)ccc2[nH]1 [Compound 4b, 3-(5-Fluoro-1H-benzoimidazol-2-ylsulfanylmethyl)-chromen-2-one] | 44.8 µM | 11.5 µM | 3.89 |
| O=c1oc2ccccc2cc1CSc1nc2cnc(Cl)nc2[nH]1 [Compound 16d, 3-(2-Chloro-9H-purin-8-ylsulfanylmethyl)-chromen-2-one] | 109 µM | 2.03 µM | 53.69 |
| COc1cccc2cc(CSc3nc4cnc(Cl)nc4[nH]3)c(=O)oc12 [Compound 16e, 3-(2-Chloro-9H-purin-8-ylsulfanylmethyl)-8-methoxy-chromen-2-one] | 94 µM | 19.6 µM | 4.80 |
| CC(=O)OCC1OC(n2c(SCc3cc4ccccc4oc3=O)nc3cc(Cl)c(Cl)cc32)C(OC(C)=O)C(OC(C)=O)C1OC(C)=O (stereo not drawn) [Compound 7d, Acetic acid 3,5-diacetoxy-2-acetoxymethyl-6-[5,6-dichloro-2-(2-oxo-2H-chromen-3-ylmethylsulfanyl)-benzoimidazol-1-yl]-tetrahydro-pyran-4-yl ester] | 19.8 µM | 3.14 µM | 6.33 |
| CC(=O)OCC1OC(n2c(SCc3cc4cc(Br)ccc4oc3=O)nc3ccccc32)C(OC(C)=O)C(OC(C)=O)C1OC(C)=O (stereo not drawn) [Compound 7e, Acetic acid 4,5-diacetoxy-2-acetoxymethyl-6-[2-(6-bromo-2-oxo-2H-chromen-3-ylmethylsulfanyl)-benzoimidazol-1-yl]-tetrahydro-pyran-3-yl ester] | 43.1 µM | 4.12 µM | 10.4 |
| O=c1oc2ccc(Br)cc2cc1CSc1nc2ccccc2[nH]1 [Compound 4g, 3-(1H-Benzoimidazol-2-ylsulfanylmethyl)-6-bromo-chromen-2-one] | 41.7 µM | 3.98 µM | 10.4 |
| O=c1oc2ccc(Br)cc2cc1CSc1nc2cccnc2[nH]1 [Compound 16c, 3-(3H-Imidazo[4,5-b]pyridin-2-ylsulfanylmethyl)-6-bromo-chromen-2-one] | 128 µM | 6.8 µM | 18.82 |
| COc1cccc2cc(CSc3nc4cc(Cl)c(Cl)cc4[nH]3)c(=O)oc12 [Compound 4j, 3-(5,6-Dichloro-1H-benzoimidazol-2-ylsulfanylmethyl)-8-methoxy-chromen-2-one] | 11.1 µM | 3.58 µM | 3.12 |
| CC(=O)OCC1OC(n2c(SCc3cc4cc(Br)ccc4oc3=O)nc3ccccc32)CC(OC(C)=O)C1OC(C)=O (stereo not drawn) [Compound 22c, Acetic acid 3,4-diacetoxy-6-[2-(6-bromo-2-oxo-2H-chromen-3-ylmethylsulfanyl)-benzoimidazol-1-yl]-tetrahydro-pyran-2-ylmethyl ester] | 16.1 µM | 4.08 µM | 3.95 |
| Cc1cc2nc(SCc3cc4ccccc4oc3=O)[nH]c2cc1C [Compound 4d, 3-(5,6-Dimethyl-1H-benzoimidazol-2-ylsulfanylmethyl)-chromen-2-one] | 66.6 µM | 15.2 µM | 4.37 |
| O=c1oc2ccc(Br)cc2cc1CSc1nc2cc(Cl)c(Cl)cc2[nH]1 [Compound 4k, 6-Bromo-3-(5,6-dichloro-1H-benzoimidazol-2-ylsulfanylmethyl)-chromen-2-one] | 44.1 µM | 2.29 µM | 19.3 |
| CC(=O)OCC1OC(n2c(SCc3cc4ccccc4oc3=O)nc3ccccc32)C(OC(C)=O)C(OC(C)=O)C1OC(C)=O (stereo not drawn) [Compound 7a, Acetic acid 3,5-diacetoxy-2-acetoxymethyl-6-[2-(2-oxo-2H-chromen-3-ylmethylsulfanyl)-benzoimidazol-1-yl]-tetrahydro-pyran-4-yl ester] | 76.4 µM | 11.1 µM | 6.88 |
| Cc1cccc2cc(CSc3nc4ccccc4[nH]3)c(=O)oc12 [Compound 4f, 3-(1H-benzoimidazol-2-ylsulfanylmethyl)-8-methyl-chromen-2-one] | 27.3 µM | 9.89 µM | 2.77 |
| O=c1oc2ccc(Br)cc2cc1CSc1nc2cc(F)ccc2[nH]1 [Compound 4i, 6-Bromo-3-(5-fluoro-1H-benzoimidazol-2-ylsulfanylmethyl)-chromen-2-one] | 26.7 µM | 3.36 µM | 7.96 |
| CC(=O)OCC1OC(n2c(SCc3cc4ccccc4oc3=O)nc3cc(F)ccc32)C(OC(C)=O)C(OC(C)=O)C1OC(C)=O (stereo not drawn) [Compound 7c, Acetic acid 3,5-diacetoxy-2-acetoxymethyl-6-[5-fluoro-2-(2-oxo-2H-chromen-3-ylmethylsulfanyl)-benzoimidazol-1-yl]-tetrahydro-pyran-4-yl ester] | 43.1 µM | 3.88 µM | 11.1 |
| COc1cccc2cc(CSc3nc4cccnc4[nH]3)c(=O)oc12 [Compound 16b, 3-(3H-Imidazo[4,5-b]pyridin-2-ylsulfanylmethyl)-8-methoxy-chromen-2-one] | 30.3 µM | 10.9 µM | 2.78 |
| COc1cccc2cc(CSc3nc4cc(Cl)c(Cl)cc4n3C3OC(COC(C)=O)C(OC(C)=O)C(OC(C)=O)C3OC(C)=O)c(=O)oc12 (stereo not drawn) [Compound 7h, Acetic acid 3,4,5-triacetoxy-6-[5,6-dichloro-2-(8-methoxy-2-oxo-2H-chromen-3-ylmethylsulfanyl)-benzoimidazol-1-yl]-tetrahydro-pyran-2-ylmethyl ester] | 33.1 µM | 4.35 µM | 7.62 |
| O=c1oc2ccccc2cc1CSc1nc2ccccc2o1 [Compound 19a, 3-(Benzooxazol-2-ylsulfanylmethyl)-chromen-2-one] | 45.2 µM | 11.7 µM | 3.86 |
| O=c1oc2ccccc2cc1CSc1nc2ccccc2[nH]1 [Compound 4a, 3-(1H-Benzoimidazol-2-ylsulfanylmethyl)-chromen-2-one] | 90.1 µM | 26.6 µM | 3.38 |
| CC(=O)OCC1OC(n2c(SCc3cc4cc(Br)ccc4oc3=O)nc3cc(F)ccc32)C(OC(C)=O)C(OC(C)=O)C1OC(C)=O (stereo not drawn) [Compound 7f, Acetic acid 3,5-diacetoxy-2-acetoxymethyl-6-[2-(6-bromo-2-oxo-2H-chromen-3-ylmethylsulfanyl)-5-fluoro-benzoimidazol-1-yl]-tetrahydro-pyran-4-yl ester] | 21.9 µM | 3.33 µM | 6.59 |
| CC(=O)OCC1OC(n2c(SCc3cc4ccccc4oc3=O)nc3cc(C)ccc32)C(OC(C)=O)C(OC(C)=O)C1OC(C)=O (stereo not drawn) [Compound 7b, Acetic acid 3,5-diacetoxy-2-acetoxymethyl-6-[5-methyl-2-(2-oxo-2H-chromen-3-ylmethylsulfanyl)-benzoimidazol-1-yl]-tetrahydro-pyran-4-yl ester] | 44.8 µM | 8.28 µM | 5.42 |
